Test systems include Hs-578T; MDA-MB-435; MDA-N; ACHN; DLD-1; LXFL 529; RXF 631; SNB-78; 786-0.
What all share (assay): NCI-60 cell line screen, 48 h

Consider 16 compounds from ChEMBL document CHEMBL1201862, “PubChem BioAssay data set” (2004).

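48-hour exposure; five concentrations; linearly interpolated endpoints. At the GI50, growth is halved.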 Calls of active or inactive are those of the source. Cut-off read from the data, not from the text of the source: active = GI50 up to about 1.1 µM and inactive = higher. Bounds are passed on as bounds.

`O=c1ccn(COC(COCc2ccccc2)COCc2ccccc2)c(=O)[nH]1`: the GI50 with Hs-578T, in the assay with MDA-MB-435 and in the assay on MDA-N was > 100 µM (inactive) each time.

Take `C[C@H]1C(=O)O[C@@H]1[C@H]1COC(C)(C)O1`: the GI50 in the assay with ACHN, in the assay with MDA-MB-435 and in the assay on MDA-N was > 100 µM (inactive) each time.

Take `CCOc1ccc(/C(C=O)=C(\Cl)c2ccc(OC)c(OC)c2)cc1`: the GI50 in the assay with ACHN, with DLD-1, with LXFL 529, with RXF 631 and in the assay on SNB-78 was > 100 µM (inactive) in each case.

As to `O=C(/C=N/c1ccccc1S)c1ccco1`, the GI50 is 6.56 µM (inactive) in the assay on DLD-1 and 16.9 µM (inactive) in the assay on SNB-78.

Take `COc1cc(/C=C/C(=O)Oc2ccc(NC(C)=O)cc2)ccc1C(=O)O/C=C/c1ccccc1`: the GI50 with DLD-1 and in the assay with SNB-78 was > 100 µM (inactive) each time.

On to `CCOC(=O)NC(Nc1ncccn1)(C(=O)OCC)C(F)(F)F` (configuration not stated), for which the GI50 in the assay with ACHN, with Hs-578T, with MDA-MB-435 and with MDA-N was > 100 µM (inactive) throughout.

As for `CCC(C(=O)O)c1ccc(OC)cc1` (configuration not stated), the GI50 in the assay with ACHN, in the assay on DLD-1, with LXFL 529, in the assay on RXF 631 and in the assay on SNB-78 was > 100 µM (inactive) each time.

For the compound `CC(C)(C)OC(=O)NCC(=O)NC1C/C(=N\O)c2sccc21` (configuration not stated), the GI50 with Hs-578T, with MDA-MB-435 and with MDA-N was > 100 µM (inactive) in each case.

In the case of `O=c1[nH]c(-c2ccc(Cl)cc2)cc2ccsc12`, the GI50 was 6.03 µM (inactive) with ACHN, 0.453 µM (active) with MDA-MB-435 and 1.58 µM (inactive) in the assay on MDA-N.

As to `COc1ccc(C[C@H](N)C(=O)N2C[C@H](CO)C[C@H](n3ccc(=O)[nH]c3=O)C2)cc1`, the GI50 with ACHN, in the assay with DLD-1 and with LXFL 529 was > 100 µM (inactive) throughout.

In the case of `CCOC(=O)NC(Nc1ccc(Cl)cn1)(C(F)(F)F)C(F)(F)F`, the GI50 in the assay on ACHN, with Hs-578T, with MDA-MB-435 and in the assay on MDA-N was > 100 µM (inactive) throughout.

As for `O=C1Sc2sc(=S)sc2SC1c1ccccc1` (configuration not stated), the GI50 in the assay on DLD-1 was 32.2 µM (inactive); in the assay on SNB-78, 31.9 µM (inactive).

For the compound `O=C1c2ccccc2C(=O)N1CC(O)COc1cccc2ccccc12` (configuration not stated), the figures for the GI50 in the assay on ACHN, with MDA-MB-435 and in the assay with MDA-N were 76.4 µM (inactive), > 100 µM (inactive) and > 100 µM (inactive), respectively.

For the compound `Clc1ccc(C[P+](c2ccccc2)(c2ccccc2)c2ccccc2)c(Cl)c1`, the figures for the GI50 in the assay on ACHN, in the assay on LXFL 529 and in the assay on SNB-78 were 10 µM (inactive), 1.67 µM (inactive) and 3.42 µM (inactive), respectively.

With `CCC(C)C1NC(=O)C2CCCN2C(=O)C(CC2CO2)OC(=O)CCNC(=O)C(C)N(C)C(=O)C(C(C)C)N(C)C1=O` (configuration not stated), the GI50 with 786-0 is 0.0601 µM (active); in the assay on ACHN it was 0.54 µM (active); in the assay with Hs-578T, > 100 µM (inactive); with MDA-MB-435, 0.111 µM (active); in the assay with MDA-N, 0.181 µM (active).

Turning to `OC[C@H]1O[C@@H](n2cnc3cncnc32)[C@H](O)[C@@H]1O` [NEBULARINE], the GI50 in the assay with DLD-1 was 0.536 µM (active); in the assay on SNB-78 it was 4.02 µM (inactive).
